# Source: patent US8293705B2, “HCV protease inhibitors and uses thereof” (Avila Therapeutics, Inc., priority 2007, dated 2012)
# Experiments:
# HCV NS3/4A wild type = target: T1, HCV NS3/4A wild type (Hepatitis C virus genotype 1b, UniProt Q9WMX2); test: Mass spectrometric analysis of covalent modification (MALDI-TOF); assay type: binding; settings: 10× excess of test compound to protein; for Covalent modification of HCV NS3/4A wild type: MALDI-TOF
# T1 construct: HCV NS3/4A wild type (wt) was incubated for 1 hr at a 10× fold access of test compound to protein; purchased Bioenza, Calif
# Method: Mass spectrometric analysis of HCV wild type or HCV variant C159S in the presence of test compound is performed. 100 pmols of HCV wild type (Bioenza, Calif.) is incubated with test compound for 1 hr and 3 hrs at 10-fold access of test compound to protein. 1 ul aliquots of the samples (total volume of 4.24 ul) are diluted with 10 ul of 0.1% TFA prior to micro C4 ZipTipping directly onto the MALDI target using Sinapinic acid as the desorption matrix (10 mg/mL in 0.1% TFA:Acetonitrile 50:50). Analyses are performed on a Shimadzu Biotech Axima TOF2 (Shimadzu Instruments) matrix-assisted-laser desorption/ionization Time-of-Flight (MALDI-TOF) mass spectrometer. The same procedure is carried out on 100 pmols of HCV C159S mutant of HCV protease for 3 hrs at 10-fold excess of test compound to protein.
# As depicted in FIGS. 1 and 2, mass spectrometric analysis of HCV wild type in the presence of test compounds I-1 and I-25 was performed using the following protocol: HCV NS3/4A wild type (wt) was incubated for 1 hr at a 10× fold access of test compound to protein. 2 ul aliquots of the samples were diluted with 10 ul of 0.1% TFA prior to micro C4 ZipTipping directly onto the MALDI target using Sinapinic acid as the desorption matrix (10 mg/ml in 0.1% TFA:Acetonitrile 50:50). For intact protein mass measurement the instrument was set in linear mode using a pulsed extraction setting of 24,500 and apomyoglobin as the standard to calibrate the instrument.
# [1] = test system: HCV RNA replicon in cell line ET (luc-ubi-neo/ET), human Huh7 hepatoma; test: HCV RNA replicon assay, Example 14 Method A; assay type: cell-based; settings: Hepatitis C virus, Huh-7, assay of Example 14, 72 hr; for IC50: read-out: Inhibition, Replicon (IC50); for IC90: read-out: Inhibition, Replicon, IC90 value
# Method: The compounds were assayed to evaluate the antiviral activity and cytotoxicity of compounds in vitro using HCV RNA replicons. This assay used the cell line ET (luc-ubi-neo/ET), which is a human Huh7 hepatoma cell line that contains an HCV RNA replicon with a stable luciferase (Luc) reporter and three cell culture-adaptive mutations. […]
# The ET cell line was grown in Dulbecco's modified essential media (DMEM), 10% fetal bovine serum (FBS), 1% penicillin-streptomycin (pen-strep), 1% glutamine, 250 μg/mL G418 in a 5% CO2 incubator at 37° C. All cell culture reagents were obtained from Mediatech (Manassas, Va.). Cells were trypsinized (1% trypsin:EDTA) and plated out at 5×10^3 cells/well in white 96-well assay plates (Costar) dedicated to cell number (cytotoxicity) or antiviral activity assessments. Drugs were added at six 3-fold concentrations each and the assay was run in DMEM, 5% FBS, 1% pen-strep, 1% glutamine. Human interferon alpha-2b (PBL Biolabs, New Brunswick, N.J.) was included in each run as a positive control compound. Cells were processed 72 hr post drug addition when the cells are still subconfluent. Antiviral activity was measured by analyzing replicon-derived luciferase activity using the Steady-Glo Luciferase Assay System (Promega, Madison, Wis.) according to manufacturer's instruction. The number of cells in each well was determined by CytoTox-1 reagent (Promega). Compound profile was derived by calculating applicable EC50 (effective concentration inhibiting virus replication by 50%), EC90 (effective concentration inhibiting virus replication by 90%), IC50 (concentration decreasing cell viability by 50%) and SI50 (selective index: […]) values.
# [2] = target: T2, HCV NS3/4A 1b protease A156T (Hepatitis C virus genotype 1b, UniProt Q9WMX2, A1182T); test: HCV protease FRET assay (IC50_APP), Example 16; assay type: biochemical
# T2 construct: 10× stocks of NS3/4A protease enzyme from Bioenza (Mountain View, Calif.); purchased Bioenza (Mountain View, Calif.)
# Method: (§1) The following protocol was used to generate “apparent” IC50 (IC50 APP) values as depicted in Table 6, below. […] 5 μL of each enzyme were added to Corning (#3575) 384-well, black, microtiter plates (Corning, N.Y.) after spotting a 0.5 μL volume of 50% DMSO and serially diluted compounds prepared in 50% DMSO. Protease reactions were immediately started after enzyme addition with the addition of 45 μL of the FRET substrate and monitored for 60-90 minutes at λex485/λem520 in a Synergy^4 plate reader from BioTek (Winooski, Vt.). At the conclusion of each assay, progress curves from each well were examined for linear reaction kinetics and fit statistics (R^2, 95% confidence intervals, absolute sum of squares).
# (§2) The compound numbers correspond to the compound numbers in Table 3. […] ;
# [3] = target: T3, HCV NS3/4A 1b protease wild type (Hepatitis C virus genotype 1b, UniProt Q9WMX2); test: HCV protease FRET assay (IC50_APP), Example 16; assay type: biochemical
# T3 construct: 10× stocks of NS3/4A protease enzyme from Bioenza (Mountain View, Calif.); purchased Bioenza (Mountain View, Calif.)
# Method: as §1, §2
# [4] = target: T4, HCV NS3/4A 1b protease R155K (Hepatitis C virus genotype 1b, UniProt Q9WMX2, R1181K); test: HCV protease FRET assay (IC50_APP), Example 16; assay type: biochemical; settings: reaction started immediately after enzyme addition, read-out: Inhibition (apparent IC50, IC50_APP), HCV R155K
# T4 construct: 10× stocks of NS3/4A protease enzyme from Bioenza (Mountain View, Calif.); purchased Bioenza (Mountain View, Calif.)
# Method: as §1, §2
# [5] = target: T5, HCV NS3/4A 1b protease D168A (Hepatitis C virus genotype 1b, UniProt Q9WMX2, D1194A); test: HCV protease FRET assay (IC50_APP), Example 16; assay type: biochemical
# T5 construct: 10× stocks of NS3/4A protease enzyme from Bioenza (Mountain View, Calif.); purchased Bioenza (Mountain View, Calif.)
# Method: as §1, §2
SMILES,Covalent modification of HCV NS3/4A wild type (HCV NS3/4A wild type),Mass increase of new protein species vs protein with no compound (HCV NS3/4A wild type; 1 hr) [Da],IC50 [1] [nM],IC90 [1] [nM],IC50 [2] [nM],IC50 [3] [nM],IC50 [4] [nM],IC50 [5] [nM]
"C=C[C@@H]1C[C@]1(NC(=O)[C@@H]1C[C@@H](OC(=O)N2Cc3cccc(F)c3C2)CN1C(=O)[C@H](CCC(=O)C=C(C)C)NC(=O)OC(C)(C)C)C(=O)NS(=O)(=O)C1CC1 [Compound I-25, (3R,5S)-1-((S)-2-(tert-butoxycarbonylamino)-7-methyl-5-oxooct-6-enoyl)-5-((1R,2S)-4-(cyclopropylsulfonylcarbamoyl)-2-vinylcyclopropylcarbamoyl)pyrrolidin-3-yl 4-fluoroisoindoline-2-carboxylate]",conversion to a new peak,773,< 10,10 to 100,10 to 100,< 10,10 to 100,100 to 1000
"C=CC(=O)N(C)CC[C@H](NC(=O)OC(C)(C)C)C(=O)N1C[C@H](OC(=O)N2Cc3cccc(F)c3C2)C[C@H]1C(=O)N[C@]1(C(=O)NS(=O)(=O)C2CC2)C[C@H]1C=C [Compound I-13, (3R,5S)-1-((S)-2-(tert-butoxycarbonylamino)-4-(N-methylacrylamido)butanoyl)-5-((1R,2S)-1-(cyclopropylsulfonylcarbamoyl)-2-vinylcyclopropylcarbamoyl)pyrrolidin-3-yl 4-fluoroisoindoline-2-carboxylate]",measurable covalent modification,–,10 to 100,100 to 1000,< 10,< 10,–,100 to 1000
"C=CC(=O)NCC[C@H](NC(=O)OC(C)(C)C)C(=O)N1C[C@H](OC(=O)N2Cc3cccc(F)c3C2)C[C@H]1C(=O)N[C@]1(C(=O)NS(=O)(=O)C2CC2)C[C@H]1C=C [Compound I-5, (3R,5S)-1-((S)-4-acrylamido-2-(tert-butoxycarbonylamino)butanoyl)-5-((1R,2S)-1-(cyclopropylsulfonylcarbamoyl)-2-vinylcyclopropylcarbamoyl)pyrrolidin-3-yl 4-fluoroisoindoline-2-carboxylate]",measurable covalent modification,–,10 to 100,100 to 1000,10 to 100,< 10,–,100 to 1000
C=C[C@@H]1C[C@]1(NC(=O)[C@@H]1CC(OC(=O)N2Cc3cccc(F)c3C2)CN1C(=O)[C@H](CCC(=O)C(=C)C)NC(=O)OC(C)(C)C)C(=O)NS(=O)(=O)C1CC1 (stereo partly drawn) [Compound I-27],measurable covalent modification,–,10 to 100,100 to 1000,< 10,< 10,–,< 10
"C=C[C@@H]1C[C@]1(NC(=O)[C@@H]1C[C@@H](OC(=O)N2Cc3cccc(F)c3C2)CN1C(=O)[C@H](CNS(=O)(=O)C=C)NC(=O)OC(C)(C)C)C(=O)NS(=O)(=O)C1CC1 [Compound I-2, (3R,5S)-1-((S)-2-(tert-butoxycarbonylamino)-3-(vinylsulfonamido)propanoyl)-5-((1R,2S)-1-(cyclopropylsulfonylcarbamoyl)-2-vinylcyclopropylcarbamoyl)pyrrolidin-3-yl 4-fluoroisoindoline-2-carboxylate]",measurable covalent modification,–,10 to 100,100 to 1000,< 10,< 10,–,< 10
"C=C[C@@H]1C[C@]1(NC(=O)[C@@H]1C[C@@H](OC(=O)N2Cc3cccc(F)c3C2)CN1C(=O)[C@@H](NC(=O)OC(C)(C)C)[C@@H](C)OC(=O)/C=C/C)C(=O)NS(=O)(=O)C1CC1 [Compound I-22, (3R,5S)-1-((2S,3R)-3-((E)-but-2-enoyloxy)-2-(tert-butoxycarbonylamino)butanoyl)-5-((1R,2S)-1-(cyclopropylsulfonylcarbamoyl)-2-vinylcyclopropylcarbamoyl)pyrrolidin-3-yl-4-fluoroisoindoline-2-carboxylate]",measurable covalent modification,–,10 to 100,10 to 100,10 to 100,< 10,10 to 100,100 to 1000
"C=C[C@@H]1C[C@]1(NC(=O)[C@@H]1C[C@@H](OC(=O)N2Cc3cccc(F)c3C2)CN1C(=O)[C@H](COC(=O)C(=C)NC(=O)OC(C)(C)C)NC(=O)OC(C)(C)C)C(=O)NS(=O)(=O)C1CC1 [Compound I-23, (3R,5S)-1-((S)-2-(tert-butoxycarbonylamino)-3-(2-(tert-butoxycarbonylamino)acryloyloxy)propanoyl)-5-((1R,2S)-1-(cyclopropylsulfonylcarbamoyl)-2-vinylcyclopropylcarbamoyl)pyrrolidin-3-yl 4-fluoroisoindoline-2-carboxylate]",measurable covalent modification,–,10 to 100,100 to 1000,< 10,< 10,–,< 10
"C=CC(=O)N(C)C[C@H](NC(=O)OC1CCCC1)C(=O)N1C[C@H](OC(=O)N2Cc3cccc(F)c3C2)C[C@H]1C(=O)N[C@]1(C(=O)NS(=O)(=O)C2CC2)C[C@H]1C=C [Compound I-20, (3R,5S)-1-((S)-2-(cyclopentyloxycarbonylamino)-3-(N-methylacrylamido)propanoyl)-5-((1R,2S)-1-(cyclopropylsulfonylcarbamoyl)-2-vinylcyclopropylcarbamoyl)pyrrolidin-3-yl 4-fluoroisoindoline-2-carboxylate]",measurable covalent modification,–,10 to 100,100 to 1000,< 10,< 10,–,10 to 100
